What is called IC50 is the concentration that gives 50% inhibition.

Consider three compounds from US8163736B2, “Cytotoxic agents comprising new tomaymycin derivatives” (sanofi-aventis, priority 2006, dated 2012).

The structures appear in SMILES notation.

Assay type in all cases: cell-based
Experiment [1] has as its system A549. The experiment is described as follows: In vitro potency of tomaymycin derivatives, WST-8 surviving fraction, A549. The note with it: Homo sapiens, 96 h; A549 cells, incubated 4 days at 37° C., WST-8 read at 450 nm. The method, then: (§1) Samples of free tomaymycin derivative or tomaymycin derivative conjugate are added to a 96-well flat bottomed tissue culture plate and titrated using serial dilutions ranging from 1×10^−12 M to 3×10^−7 M. Antigen positive tumor cells or antigen negative tumor cells are added to the wells in such a way that there are triplicate samples for each drug concentration for each cell line. The plates are incubated at 37° C. in an atmosphere of 5% CO2 for 4 days.
(§2) At the end of the incubation period, 20 μl of the tetrazolium reagent WST-8 (2-(2-methoxy-nitrophenyl)-3-(4-nitrophenyl)-5-(2,4-disulfophenyl)-2-tetrazolium, monosodium salt) is added to each well, and the plates are returned to the incubator for 2 hours. The absorbance in each well of the plates is then measured using the Molecular Devices plate reader at 450 nm. Surviving fraction of cells at each concentration of tomaymycin derivative or conjugate are plotted.
For orientation: Tetrazolium dyes change colour on reduction, which living cells bring about.

Experiment [2] has as its system KB. Put plainly: In vitro potency of tomaymycin derivatives, WST-8 surviving fraction, KB. To be noted: Homo sapiens, 96 h; KB cells, incubated 4 days at 37° C., WST-8 read at 450 nm. As to the method:
as §1, §2

In experiment [3] the test system is MCF7. The experiment is described as follows: In vitro potency of tomaymycin derivatives, WST-8 surviving fraction, MCF7. To be noted: Homo sapiens, 96 h; MCF7 cells, incubated 4 days at 37° C., WST-8 read at 450 nm. As to the method: as §1, §2

For the compound `C/C=C1\C[C@H]2C=Nc3cc(OCc4cccc(COc5cc6c(cc5OC)C(=O)N5C/C(=C/C)C[C@H]5C=N6)c4)c(OC)cc3C(=O)N2C1` [Example 1, 8,8′-[1,3-benzenediylbis(methylenoxy)]-bis[(S)-2-eth-(E)-ylidene-7-methoxy-1,2,3,11a-tetrahydro-5H-pyrrolo[2,1-c][1,4]benzodiazepin-5-one]], the IC50 in experiment [1], in experiment [2] and in experiment [3] was < 0.001 nM in each case.
`C/C=C1\C[C@H]2C=Nc3cc(OCc4cc(COc5cc6c(cc5OC)C(=O)N5C/C(=C/C)C[C@H]5C=N6)cc(OC)c4)c(OC)cc3C(=O)N2C1` [Example 2, 8,8′-[5-methoxy-1,3-benzenediylbis(methylenoxy)]-bis[(S)-2-eth-(E)-ylidene-7-methoxy-1,2,3,11a-tetrahydro-5H-pyrrolo[2,1-c][1,4]benzodiazepin-5-one]]: the IC50 in experiment [1], in experiment [2] and in experiment [3] was < 0.001 nM in each case.
With `C/C=C1\C[C@H]2C=Nc3cc(OCCC(C)CCOc4cc5c(cc4OC)C(=O)N4C/C(=C/C)C[C@H]4C=N5)c(OC)cc3C(=O)N2C1` [Example 5, 8,8′-[3-methyl-1,5-pentanediylbis(oxy)]-bis[(S)-2-eth-(E)-ylidene-7-methoxy-1,2,3,11a-tetrahydro-5H-pyrrolo[2,1-c][1,4]benzodiazepin-5-one]], the IC50 in experiment [1] was found to be 0.07 nM; in experiment [2] it was 0.1 nM; in experiment [3], 0.1 nM.
